Calls of active or inactive are those of the source. The rule behind the calls is not given here.
Tests used:
[1] = molecular target: T1, Histone acetyltransferase KAT2B (Homo sapiens, UniProt Q92831)
Target sequence in this assay (Q92831 whole entry, looked up): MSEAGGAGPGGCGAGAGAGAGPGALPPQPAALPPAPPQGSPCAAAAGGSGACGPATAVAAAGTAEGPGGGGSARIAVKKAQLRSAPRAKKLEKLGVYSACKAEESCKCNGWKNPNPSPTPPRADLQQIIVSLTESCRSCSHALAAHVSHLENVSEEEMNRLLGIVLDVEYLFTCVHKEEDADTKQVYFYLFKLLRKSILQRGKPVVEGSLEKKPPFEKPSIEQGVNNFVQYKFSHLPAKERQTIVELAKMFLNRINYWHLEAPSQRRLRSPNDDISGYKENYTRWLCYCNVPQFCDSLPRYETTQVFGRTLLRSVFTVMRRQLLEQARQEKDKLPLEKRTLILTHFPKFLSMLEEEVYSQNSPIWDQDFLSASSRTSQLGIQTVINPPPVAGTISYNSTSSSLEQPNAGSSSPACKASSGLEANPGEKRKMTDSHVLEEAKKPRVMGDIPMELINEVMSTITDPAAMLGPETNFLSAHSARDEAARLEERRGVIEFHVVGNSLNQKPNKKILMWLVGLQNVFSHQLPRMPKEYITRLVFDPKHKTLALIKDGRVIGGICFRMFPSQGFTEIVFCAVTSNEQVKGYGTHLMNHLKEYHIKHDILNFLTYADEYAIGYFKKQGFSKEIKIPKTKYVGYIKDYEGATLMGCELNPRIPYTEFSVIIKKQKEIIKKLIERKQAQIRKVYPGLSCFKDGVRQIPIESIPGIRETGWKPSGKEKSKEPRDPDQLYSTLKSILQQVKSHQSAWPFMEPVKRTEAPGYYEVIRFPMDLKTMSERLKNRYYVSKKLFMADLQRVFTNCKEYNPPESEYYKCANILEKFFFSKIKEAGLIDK
Description: Binding affinity to recombinant N-terminal His-tagged PCAF (715 to 831 residues) (unknown origin) expressed in Escherichia coli Rosetta cells at 1 mM by differential scanning fluorimetry

[2] = molecular target: T2, Bromodomain-containing protein 9 (Homo sapiens) (UniProt Q9H8M2); assay: Inhibition of BRD9 (unknown origin) at 25 uM by alphascreen assay
T2 sequence (whole entry): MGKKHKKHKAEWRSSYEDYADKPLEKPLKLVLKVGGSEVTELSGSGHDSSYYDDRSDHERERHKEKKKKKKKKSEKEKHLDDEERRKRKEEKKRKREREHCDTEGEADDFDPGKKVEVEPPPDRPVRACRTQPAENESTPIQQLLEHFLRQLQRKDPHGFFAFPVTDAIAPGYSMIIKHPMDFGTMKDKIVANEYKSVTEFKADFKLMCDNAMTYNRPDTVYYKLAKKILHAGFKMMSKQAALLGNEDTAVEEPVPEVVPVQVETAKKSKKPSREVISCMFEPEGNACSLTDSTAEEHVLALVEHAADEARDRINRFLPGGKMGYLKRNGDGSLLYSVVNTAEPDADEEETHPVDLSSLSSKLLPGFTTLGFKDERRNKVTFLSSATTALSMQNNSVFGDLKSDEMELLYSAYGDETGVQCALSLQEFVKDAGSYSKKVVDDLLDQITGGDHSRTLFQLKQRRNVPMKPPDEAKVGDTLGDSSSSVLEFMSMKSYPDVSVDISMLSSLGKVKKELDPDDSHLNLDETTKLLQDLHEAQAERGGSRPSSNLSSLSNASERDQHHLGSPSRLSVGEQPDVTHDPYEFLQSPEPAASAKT

[3] = molecular target: T1, Histone acetyltransferase KAT2B; assay: Binding affinity to recombinant N-terminal His-tagged PCAF (715 to 831 residues) (unknown origin) expressed in Escherichia coli Rosetta cells at 0.5 mM by differential scanning fluorimetry
Target sequence in this assay (Q92831 whole entry, looked up): as the sequence (Q92831 whole entry, looked up) above

[4] = molecular target: Chromatin remodeling regulator CECR2 (Homo sapiens) (UniProt Q9BXF3); assay: Binding affinity to recombinant human CECR2 by differential scanning fluorimetry
[5] = molecular target: T3, Bromodomain-containing protein 7 (Homo sapiens) (UniProt Q9NPI1); assay: Binding affinity to recombinant human BRD7 by differential scanning fluorimetry
T3 sequence (whole entry): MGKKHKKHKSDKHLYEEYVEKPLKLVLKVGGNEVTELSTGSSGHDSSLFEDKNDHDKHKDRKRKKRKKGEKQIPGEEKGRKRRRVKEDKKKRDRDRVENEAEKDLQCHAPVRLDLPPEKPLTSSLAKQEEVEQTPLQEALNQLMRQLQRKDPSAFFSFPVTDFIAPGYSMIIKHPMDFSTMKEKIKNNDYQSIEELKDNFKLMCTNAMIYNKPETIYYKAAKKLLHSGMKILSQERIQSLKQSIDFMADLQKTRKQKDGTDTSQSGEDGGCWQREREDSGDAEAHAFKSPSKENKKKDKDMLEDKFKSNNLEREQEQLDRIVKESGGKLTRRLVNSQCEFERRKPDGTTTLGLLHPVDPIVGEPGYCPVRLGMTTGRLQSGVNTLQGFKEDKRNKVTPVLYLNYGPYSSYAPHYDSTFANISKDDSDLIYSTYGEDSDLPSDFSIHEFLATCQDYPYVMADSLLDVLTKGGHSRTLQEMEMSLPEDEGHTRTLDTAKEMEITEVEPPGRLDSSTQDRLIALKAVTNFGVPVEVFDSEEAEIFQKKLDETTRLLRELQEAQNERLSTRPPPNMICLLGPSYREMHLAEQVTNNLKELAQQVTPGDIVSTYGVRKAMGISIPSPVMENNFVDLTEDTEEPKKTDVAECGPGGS

[6] = molecular target: T1, Histone acetyltransferase KAT2B; assay: Binding affinity to N-terminal His-tagged PCAF (715 to 831 residues) (unknown origin) expressed in Escherichia coli Rosetta cells by isothermal titration calorimetry
Target sequence in this assay (Q92831 whole entry): as the sequence (Q92831 whole entry, looked up) above

Sequence of Chromatin remodeling regulator CECR2 (Homo sapiens) (Q9BXF3 whole entry, looked up): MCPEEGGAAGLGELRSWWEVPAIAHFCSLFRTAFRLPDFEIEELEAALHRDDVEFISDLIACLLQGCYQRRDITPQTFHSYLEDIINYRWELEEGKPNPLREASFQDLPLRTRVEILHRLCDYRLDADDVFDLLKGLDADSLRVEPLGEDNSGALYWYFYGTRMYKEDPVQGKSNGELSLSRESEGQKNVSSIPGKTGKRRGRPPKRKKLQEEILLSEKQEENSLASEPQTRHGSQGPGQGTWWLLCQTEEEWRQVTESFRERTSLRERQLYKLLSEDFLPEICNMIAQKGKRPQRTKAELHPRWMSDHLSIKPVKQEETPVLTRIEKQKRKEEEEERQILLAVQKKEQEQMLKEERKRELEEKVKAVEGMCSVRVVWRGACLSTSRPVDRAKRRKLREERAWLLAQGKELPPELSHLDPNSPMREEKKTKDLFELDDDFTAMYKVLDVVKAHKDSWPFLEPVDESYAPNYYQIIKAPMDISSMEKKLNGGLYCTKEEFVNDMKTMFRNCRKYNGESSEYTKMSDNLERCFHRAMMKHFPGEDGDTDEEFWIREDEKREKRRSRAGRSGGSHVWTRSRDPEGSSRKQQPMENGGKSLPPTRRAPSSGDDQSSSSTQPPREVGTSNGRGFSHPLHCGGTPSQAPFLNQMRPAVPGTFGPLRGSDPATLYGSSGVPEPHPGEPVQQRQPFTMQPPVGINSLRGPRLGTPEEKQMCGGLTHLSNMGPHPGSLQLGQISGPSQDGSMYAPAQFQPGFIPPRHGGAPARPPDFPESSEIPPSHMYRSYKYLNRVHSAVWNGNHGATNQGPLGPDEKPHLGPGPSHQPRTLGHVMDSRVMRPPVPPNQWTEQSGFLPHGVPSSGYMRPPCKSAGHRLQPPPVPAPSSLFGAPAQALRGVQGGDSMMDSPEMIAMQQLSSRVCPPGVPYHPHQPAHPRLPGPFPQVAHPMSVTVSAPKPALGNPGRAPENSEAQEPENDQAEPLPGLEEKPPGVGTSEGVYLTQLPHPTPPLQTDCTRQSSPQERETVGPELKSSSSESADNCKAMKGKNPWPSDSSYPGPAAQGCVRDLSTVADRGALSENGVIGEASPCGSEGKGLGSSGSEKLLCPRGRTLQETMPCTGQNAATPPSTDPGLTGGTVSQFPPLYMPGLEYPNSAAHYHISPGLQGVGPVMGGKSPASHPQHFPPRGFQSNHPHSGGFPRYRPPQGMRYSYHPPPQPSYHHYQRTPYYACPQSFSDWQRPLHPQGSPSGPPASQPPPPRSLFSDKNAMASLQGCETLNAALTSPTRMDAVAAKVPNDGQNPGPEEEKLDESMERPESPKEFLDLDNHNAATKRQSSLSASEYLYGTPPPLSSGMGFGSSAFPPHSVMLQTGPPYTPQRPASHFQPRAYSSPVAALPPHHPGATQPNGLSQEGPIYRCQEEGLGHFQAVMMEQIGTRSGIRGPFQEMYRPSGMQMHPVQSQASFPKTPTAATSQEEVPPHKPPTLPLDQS

| ΔTm [1] [°C] | Compound | further results |
| --- | --- | --- |
| 1 | NCc1ccc(-c2csnn2)cc1 | – |
| 0.9 | Cc1nn(CCO)c2c1C(=O)CCC2 | – |
| 2.6 | CC(=O)Nc1ccc2c(C)cc(=O)n(C)c2c1 | inhibition [2]: Active |
| 0.8 | COc1cccc2onc(N)c12 | – |
| – | Cc1cc(=O)n(C)c2cc(NS(C)(=O)=O)ccc12 | inhibition [2]: Active |
| 0.6 | Cc1c(N)c(=O)n(-c2ccccc2)n1C | – |
| 1.3 | Oc1ccccc1-c1ccno1 | – |
| 1.5 | CN1Cc2ccccc2C1=O | – |
| 1 | NC1CCN(C(=O)C2CC2)CC1 | – |
| 0.7 | COC(=O)c1ccc(N2CCOCC2)nc1 | – |
| – | CNC(=O)c1cc(OCC(=O)Nc2ccccc2)ccc1OC1CCOCC1 | ΔTm [3]: 3.3 °C; ΔTm [4]: 7.1 °C; ΔTm [5]: 6.5 °C; Kd [6]: 6.8 µM |
| 2 | Cn1c(=O)ccc2ccccc21 | – |
| 0.8 | NC(=O)c1cccc2c1OCCO2 | – |
| 2 | NC(=O)c1ccc2[nH]ccc2c1 | – |

From ChEMBL document CHEMBL3774375, “Structure-Based Identification of Inhibitory Fragments Targeting the p300/CBP-Associated Factor Bromodomain” (J Med Chem, 2016)
